The source of these data is PubChem BioAssay AID1981 (Southern Research Specialized Biocontainment Screening …, 2009).

In the test the test system is S. Typhimurium PhoP-promoter GFP reporter counterscreen, fluorescence, 4 h. In words: S. Typhimurium GFP fluorescence modified counterscreen for PhoP regulon inhibitor project dose response (AID 1981). Background: The purpose of a counterscreen is to sort out artefacts and off-target activity.

The term IC50 denotes the point on the concentration scale where inhibition reaches its midpoint. With `O=[N+]([O-])c1ccc(N/N=C/c2ccc[nH]2)cc1`, the IC50 is 141 µM.

As for `CCC(C)NC(=O)c1cn(CC)c2cc(N3CCN(C)CC3)c(F)cc2c1=O` (configuration not stated), the 50% inhibitory concentration (IC50) is 59 µM. In the case of `O=S1(=O)CCC(NC(=S)SCCOc2ccccc2)C1` (configuration not stated) it was 86.5 µM.

As to `O=C(N[C@H](CO)[C@H](O)c1ccc([N+](=O)[O-])cc1)C(Cl)Cl`, the half-maximal inhibitory concentration (IC50) is 8.46 µM. Turning to `O=[N+]([O-])c1cc(F)c2cccnc2c1O`, the IC50 is 9.5 µM. For the compound `CN(C)S(=O)(=O)c1cccc(NC(=S)N/N=C/c2cc(Br)ccc2O)c1`, the half-maximal inhibitory concentration (IC50) is 54.7 µM. Turning to `CCOC(=O)N1CCN(C(=O)c2cn(CC)c3cc(N4CCN(C)CC4)c(F)cc3c2=O)CC1`, the IC50 was 8.51 µM.

Consider `Cc1cccc(Nc2cc(C)c3c(O)cccc3n2)c1C`, for which the half-inhibitory concentration (IC50) was 82.7 µM. Consider `COc1cccc(Nc2nc(NCC3CCCO3)c3ccccc3n2)c1` (configuration not stated), for which the half-maximal inhibitory concentration (IC50) was 102 µM. As for `CC(=O)NC(c1cccc([N+](=O)[O-])c1)c1ccc2cccnc2c1O` (configuration not stated), the concentration for half-maximal inhibition (IC50) was 72.5 µM. As to `O=C(NC(CO)Cc1ccc([N+](=O)[O-])cc1)C(Cl)Cl` (configuration not stated), the IC50 is 9.48 µM. Turning to `CCOc1cc(/C=N/N=C(N)N)ccc1OCc1ccc(Cl)cc1`, the IC50 was 56.8 µM. Regarding `CCCCN(CCCC)C(=O)c1cn(CC)c2cc(N3CCN(C)CC3)c(F)cc2c1=O`, the concentration for half-maximal inhibition (IC50) is 14.2 µM. As to `CC(C)NC1=C(Cl)C(=O)c2ccccc2C1=O`, the half-inhibitory concentration (IC50) was 59.4 µM. As for `CCc1ccc(-c2nn(-c3ccccc3)cc2CSC(=N)N)cc1`, the concentration for half-maximal inhibition (IC50) is 40.4 µM. Turning to `CN(C)c1ccc(O)c2c1CC1CC3[C@@H](N(C)C)C(=O)C(C(N)=O)=C(O)[C@]3(O)C(=O)C1=C2O` (some centres not stated), the 50% inhibitory concentration (IC50) was 1.54 µM. On to `CC(=O)NC(c1ccc(Cl)cc1Cl)c1ccc2cccnc2c1O` (configuration not stated), for which the IC50 was 40.2 µM. `COc1ccc(C(C[N+](=O)[O-])C2(c3ccc(OC)c(OC)c3)C(=O)c3ccccc3C2=O)cc1` (configuration not stated): the concentration for half-maximal inhibition (IC50) was 23.6 µM. Regarding `Oc1ccc(/C=N/Nc2ncc(Br)cn2)c(O)c1`, the IC50 is 128 µM.

On to `COc1ccc(OCC(O)CNc2ccc(Br)cc2)cc1` (configuration not stated), for which the half-maximal inhibitory concentration (IC50) is 20 µM. `Oc1cccc2ccc(Nc3ccccn3)nc12`: the IC50 is 14.5 µM.

Consider `Cc1ccc(C)n1-c1cc(S(=O)(=O)N2CCOCC2)ccc1N1CCCC1`, for which the IC50 was 138 µM. As to `O=CN/N=C/c1c(O)ccc2ccccc12`, the half-inhibitory concentration (IC50) was 59.6 µM.

Take `Cc1ccc(S(=O)(=O)/N=C2/C=C(Sc3ncn[nH]3)C(=O)c3ccccc32)cc1`: the IC50 was 36.6 µM. `O=c1[nH]cc(F)c(=O)[nH]1`: the IC50 was 4.17 µM. Take `O=S1(=O)Nc2c(ccc3cccnc23)-c2ccccc21`: the IC50 was 3.01 µM. The figure for `CCn1cc(C(=O)O)c(=O)c2cc3c(cc21)OCO3` is 67.5 µM. For `COc1ccc(C(C[N+](=O)[O-])n2nc(C)cc2C)cc1` (configuration not stated), the IC50 was 21.6 µM.

Take `CN1CCN(C(c2ccccn2)c2cc(Cl)c3cccnc3c2O)CC1` (configuration not stated): the IC50 was 67.3 µM. On to `CCCCCCCCCCOC(=O)Cn1c(COc2ccccc2)[n+](C)c2ccccc21`, for which the IC50 is 64.3 µM. Regarding `Nc1ncn([C@@H]2O[C@H](CO)[C@@H](O)[C@H]2O)c(=O)n1`, the IC50 was 19.4 µM. In the case of `C=CC1=C(C(=O)O)N2C(=O)[C@@H](NC(=O)/C(=N\O)c3csc(N)n3)[C@H]2SC1` (stereo in doubt), the IC50 was 33.8 µM.

Regarding `O=C1c2ccccc2C(=O)N1c1cccc(-c2csc(Nc3ccc4c(c3)OCO4)n2)c1`, the 50% inhibitory concentration (IC50) is 128 µM. In the case of `Cc1ccc(Nc2cc(C)nn2-c2nc(C)cc(=O)[nH]2)cc1`, the IC50 is 12.4 µM.

For `COc1c(N2CCN(C(=S)NC3CC4CCC3C4)C(C)C2)c(F)cc2c(=O)c(C(=O)O)cn(C3CC3)c12` (configuration not stated), the IC50 is 5.38 µM. For `O=Nc1ccc(O)c2ncccc12`, the IC50 was 41.4 µM. As for `O=C(C[n+]1cc(-c2ccc(Cl)c(Cl)c2)n2c1CCC2)N1c2ccccc2Sc2ccccc21`, the IC50 was 84.7 µM. In the case of `O=C(N/N=C/c1cc(Cl)ccc1O)c1ccncc1`, the IC50 is 31.2 µM.

As for `CCN(CC(=O)NC(C)(C)C)C(=O)COc1c(Cl)cc(Cl)c2ccc(C)nc12`, the IC50 was 136 µM. Take `Cc1ccc(Nc2nc(N)c3ccccc3n2)cc1Cl`: the IC50 is 74.4 µM.

In the case of `CC(=O)NC(c1ccc2ccccc2c1)c1ccc2cccnc2c1O` (configuration not stated), the IC50 is 46.2 µM. For `Oc1c(Cl)cc(Cl)c2cccnc12`, the 50% inhibitory concentration (IC50) was 17.9 µM. In the case of `Oc1ccc(N=Cc2ccc(O)c(O)c2)cc1`, the IC50 is 67.6 µM. `CCn1cc(C(=O)O)c(=O)c2cc(F)c(N3CCN(C(=S)NC(=O)c4c(OC)cccc4OC)CC3)cc21`: the half-inhibitory concentration (IC50) was 62.8 µM. Consider `O=C(N/N=C\C=C\c1ccc([N+](=O)[O-])o1)c1cccs1`, for which the half-maximal inhibitory concentration (IC50) was 34.8 µM.

For the compound `CN1CCN(C(c2ccc(C(F)(F)F)cc2)c2cc(Cl)c3cccnc3c2O)CC1` (configuration not stated), the IC50 is 30.2 µM.

On to `Oc1cccc(/C=N/Nc2ccc(Cl)nn2)c1O`, for which the IC50 was 24.4 µM. In the case of `CCCC(=O)NC(c1ccccc1)c1ccc2cccnc2c1O` (configuration not stated), the IC50 was 32.1 µM. As to `CCc1ccc(NC(=O)C[n+]2cc(-c3ccc(C)cc3)n3c2CCC3)cc1`, the IC50 was 146 µM. `CCOc1ccc(NC(=O)c2ccc(NC(=O)c3cn4c5c(c(N6CCN(C)CC6)c(F)cc5c3=O)OCC4C)cc2)cc1` (configuration not stated): the IC50 was 4.1 µM.

For `CCNC(=S)NNC(=O)c1ccccn1`, the 50% inhibitory concentration (IC50) was 33.7 µM. Regarding `CO[C@@]1(NC(=O)C2SC(=C(C(N)=O)C(=O)O)S2)C(=O)N2C(C(=O)O)=C(CSc3nnnn3C)CS[C@@H]21` (some centres not stated), the IC50 was 21.7 µM. In the case of `Nc1nonc1-n1nnc(C(=O)N/N=C/c2cc(Br)ccc2O)c1CSC1=NCCS1`, the concentration for half-maximal inhibition (IC50) is 145 µM. The figure for `NC1=NC[C@H](Cc2ccccc2)N1CCCCC1CCCCC1` is 61.1 µM. For `CCOC(=O)c1ccc(-c2ccc(C3Nc4ccccc4C(=O)N3O)o2)cc1` (configuration not stated), the IC50 was 112 µM.

`Cc1scc(C(=O)N/N=C/c2ccc([N+](=O)[O-])o2)c1C`: the half-maximal inhibitory concentration (IC50) is 68.7 µM. Take `CNC[C@H](CC1CCCCC1)NC[C@H](Cc1ccccc1)NCCC12CC3CC(CC(C3)C1)C2`: the IC50 is 19.6 µM. For `CS(=O)(=O)c1ccc([C@@H](O)[C@@H](CO)NC(=O)C(Cl)Cl)cc1`, the 50% inhibitory concentration (IC50) was 63.7 µM. Consider `Oc1cc(Cl)ccc1Oc1ccc(Cl)cc1Cl`, for which the IC50 was 0.68 µM. In the case of `Cc1ccc(C(C[N+](=O)[O-])c2c(-c3ccccc3O)[nH][nH]c2=O)cc1` (configuration not stated) it was 39.2 µM.

`CN1CCN(C(c2ccc(Br)cc2)c2cc(Cl)c3cccnc3c2O)CC1` (configuration not stated): the IC50 was 24 µM.

With `Oc1c(CN2CCc3ccccc3C2)cc(Cl)c2cccnc12`, the IC50 is 7.36 µM.

As to `C=C1c2c(Cl)ccc(O)c2C(O)=C2C(=O)[C@]3(O)C(O)=C(C(N)=O)C(=O)[C@@H](N(C)C)[C@@H]3[C@@H](O)C12` (some centres not stated), the 50% inhibitory concentration (IC50) is 0.94 µM. Regarding `Nc1nnc(-c2cccc(Cl)c2Cl)c(N)n1`, the IC50 is 66.4 µM. The figure for `Nc1cccc2nc3ccccc3cc12` is 43.4 µM; for `CCCC(=O)NC(c1ccc(C)cc1)c1ccc2cccnc2c1O` (configuration not stated) it is 54.7 µM. For `CCCCCCCCCCCCCCCCn1cc[n+](CC(C)=O)c1`, the IC50 was 86.1 µM. For `CCn1cc(C(=O)O)c(=O)c2cc(F)c(N3CCN(C(=S)NC(=O)c4ccc(F)c(F)c4)CC3)cc21`, the IC50 was 46.6 µM.

As for `Oc1cccc(/C=N/NC(=S)Nc2cccnc2)c1O`, the IC50 is 28.7 µM. For the compound `CNc1nc(NCc2ccccc2)c2ccccc2n1`, the 50% inhibitory concentration (IC50) is 96.7 µM. As for `O=C(Oc1ccc[nH]c1=O)c1cc([N+](=O)[O-])cc([N+](=O)[O-])c1`, the IC50 is 79.7 µM. On to `COc1ccc(OC)c(C(=O)C2COC(=O)C2)c1` (configuration not stated), for which the concentration for half-maximal inhibition (IC50) is 134 µM. In the case of `Oc1c(C(Nc2cccc(C(F)(F)F)c2)c2cccnc2)ccc2cccnc12` (configuration not stated) it was 56.2 µM; in that of `O=C(Oc1c(Cl)cc(Cl)c2cccnc12)c1ccco1`, 17.3 µM. `O=C1C=C(N2CCOCC2)c2ccccc2C1=O`: the IC50 was 69.9 µM. As for `C(=N\Nc1ccccn1)/c1cccnc1`, the IC50 was 62.2 µM. Consider `Cc1ccc(C(=O)O)cc1N=Cc1cc(Br)cc(Br)c1O`, for which the half-inhibitory concentration (IC50) is 105 µM.

On to `C#CCOCCOCCOCCNc1nc(N2CCN(C(=O)CCCCCCCCCCNC(=O)[C@H]([C@@H](C)CC)n3cc(CCCCN=C(N)N)nn3)CC2)nc(N2CCN(C(=O)CCCCCCCCCCNC(=O)[C@H]([C@@H](C)CC)n3cc(CCCCN=C(N)N)nn3)CC2)n1`, for which the IC50 was 61.1 µM. As for `Oc1ccc(CN2CCCc3ccccc32)c2cccnc12`, the IC50 is 20 µM. As for `CC(=O)Oc1cc2cccc(OC(C)=O)c(=O)c2c(OC(C)=O)c1OC(C)=O`, the IC50 was 17.7 µM.

`O=C(Nc1ccccc1)Nc1ncc([N+](=O)[O-])s1`: the concentration for half-maximal inhibition (IC50) is 53.4 µM. On to `CCCCCCCCCCOC(=O)C[N+](C)(C)C/C=C(/C)Cl`, for which the IC50 was 83.3 µM. For the compound `O=C(CN1CCCC1)N/N=C/c1c(O)ccc2ccccc12`, the IC50 was 70.6 µM. For the compound `CC[n+]1c(/C=C/c2ccc(N(C)C)cc2)ccc2ccccc21`, the IC50 was 91.2 µM. The figure for `N=c1n(CC(=O)c2ccc(Br)s2)c2ccccc2n1Cc1ccccc1` is 131 µM; for `O=c1[nH]c2ccccc2n2c(=S)[nH]nc12` it is 29.1 µM. Turning to `COC(=O)c1c(NC(=O)c2ccc([N+](=O)[O-])o2)sc2c1CCN(C(C)C)C2`, the IC50 is 55.8 µM. On to `C[C@H]1COc2c(N3CCN(C)CC3)c(F)cc3c(=O)c(C(=O)O)cn1c23`, for which the IC50 was < 0.23 µM. Turning to `CCn1cc(C(=O)NCCN(C)C)c(=O)c2cc(F)c(N3CCN(C)CC3)cc21`, the IC50 is 123 µM.

In the case of `Oc1ccccc1NCC(O)Cn1ccc2ccccc21` (configuration not stated), the IC50 is 130 µM. The figure for `COc1ccc(C(C[N+](=O)[O-])c2c(-c3ccccc3)cc3ccccn23)cc1` (configuration not stated) is 56.9 µM. The figure for `Cc1ccc(C(C[N+](=O)[O-])c2c(N)n(C)c(=O)n(C)c2=O)cc1` (configuration not stated) is 18.4 µM; for `CCCCCCCCNC(C)C(O)c1ccc(SC(C)C)cc1` (configuration not stated) it is 121 µM. For the compound `COc1ccc(OCc2n(CC(=O)OC3CC(C)CCC3C(C)C)c3ccccc3[n+]2C)cc1` (configuration not stated), the IC50 was 113 µM.

Consider `N=C(N)SCc1cn(-c2ccccc2)nc1-c1ccc(Br)cc1`, for which the IC50 is 36.1 µM.

Consider `CCCCCCCCCC[N+](C)(C)CC/C=C1/c2ccccc2Sc2ccc(Cl)cc21`, for which the IC50 was 40 µM. For `COC(=O)C1C(O)C(C)C(O)C(C)/C=C\C=C(/C)C(=O)Nc2c(C)c(OC(C)=O)c3c(c2O)C(=O)C(C)=C2OCOC(=C23)/C(C)=C/C(C)(O)C(O)C(C)C1O` (configuration not stated), the IC50 is 23.5 µM.
